Reference: patent US6610725B1, “Fluorinated imidazoline benzodioxane, preparation and therapeutic uses thereof” (Pierre Fabre Medicament, priority 1999, dated 2003)
“Also recorded” adds a separate entry of the source. Counter-ions that a name gives are not always drawn.

Assays:
α1 or α2 receptors = conditions: from J. Med. Chem. publications; cited from earlier work
α2-adrenergic receptors = test: Inhibition of the hypothermia induced with guanabenz; format: in vivo; conditions: for ED50 inhibition of hypothermia / Range of active doses, inhibition of hypothermia / ED50 normalization of hypothermia / Range of active doses, normalization of hypothermia: i.p.; for Range of active doses, normalization of hypothermia: normalization (return to normal temperature); for Number of doses inducing the inhibition of hypothermia in 100% of the animals: each dose separated by a factor of 4
Protocol: The assessment of the biological activity of the compounds of the invention is also carried out in vivo by studying the inhibition of the hypothermia induced with a central α2-agonist such as guanabenz according to the protocol of S. C. Dilsaver, Pharmacol. Biochem. Behav., 45, 247, 1993.
The inhibitory capacities are expressed as the ED50 which represent the doses producing a significant inhibition of the hypothermia induced with guanabenz on the one hand, and a normalization, that is to say a return to the normal temperature for the animal, before injection of guanabenz on the other hand. These values are obtained using the method of J. T. Litchfield and F. Wilcoxon (J. Pharmacol. Exp. Ther., 96, 99, 1949). The comparison is made between the 2-methoxy compounds, fluorinated in position 5 (dextrorotatory compound of Example 1) and nonfluorinated: (+) RX 821002, and between the 2-ethoxy, fluorinated in position 5 (dextrorotatory compound of Example 2) and nonfluorinated: (+) RX 811059.

[1] = system: memory deficit induced with scopolamine; test: Memory deficit induced with scopolamine (passive avoidance test); format: in vivo; conditions: rats; active doses over the range from 0.04 to 2.5 mg/kg
Excerpt: In accordance with the cholinergic hypothesis of the phenomena of learning and memory, scopolamine has […] properties in animals and man. Its administration to a healthy person induces certain amnesia symptoms similar to those observed in Alzheimer's disease. It has been proposed that the scopolamine be used as an experimental pharmacological model of this pathology. The similarities between the memory deficits of Alzheimer's disease and those induced with scopolamine in rats have been published (P. Chopin et M. Briley, The effects of raubasine and dihydroergocristine on an […] deficit in passive avoidance learning in rats, J.Pharm.Pharmacol. 42, 375-376, 1990). Scopolamine reduces the capacity for acquisition, memorization and recall in a test of passive avoidance in rats. This involves measuring the reticence, after learning, that the animal has in entering a dark compartment, where it receives a mild electric shock. The administration of scopolamine suppresses this reticence, and the test compounds oppose the effect of scopolamine. The comparison of the products of the present invention is made with the known compound RX 821002, dextrorotatory enantiomer. The experimental protocol is that published by P. Chopin and M. Briley (Effects of four non-cholinergic cognitive enhancers in comparison with tacrine and galanthamine on scopolamine-induced amnesia in rats: Psychopharmacology, 106, 26-30, 1992).

release of noradrenalin = test: Release of noradrenalin: normetanephrine level in frontal cortex; format: in vivo; conditions: mice, i.p., 0.01 to 2.5 mg/kg, 60 minutes, cortical tissue, HPLC
Protocol: The level of normetanephrine, a noradrenalin metabolite, in the cerebral tissues is used as a measurement of the release of noradrenalin. Wood, P. L. and coll. Pharmacological Rev. 40, 163-187, (1988), and J. Neurochem. 48, 574-579, (1987)). The formation of normetanephrine, by the action of catechol O-methyltransferase takes place on the outside of the noradrenergic neurones and its measurement takes account of variations in the release of noradrenalin. This measurement is performed in the frontal cortex, a region innervated mainly by the locus coeruleus.
The test compound is administered intraperitoneally to the mice, which are sacrificed after 60 minutes by irradiation with microwaves (to avoid any artefactual changes in the metabolite levels). After dissection, normetanephrine is assayed by HPLC on the cortical tissue extracts. At doses of 0.01 to 2.5 mg/kg, the assayed normetanephrine represents a level from 125 to 150% higher with the compound of Example 1, relative to (+) RX 821002, under the same conditions.

melting point [°C] | SMILES | ED50 inhibition of hypothermia (α2-adrenergic receptors) [mg/kg] | Range of active doses, inhibition of hypothermia (α2-adrenergic receptors) [mg/kg] | ED50 normalization of hypothermia (α2-adrenergic receptors) [mg/kg] | Range of active doses, normalization of hypothermia (α2-adrenergic receptors) [mg/kg] | Increase in the time taken to enter the dark compartment by the treated animals, relative to those receiving scopolamine alone (% amplitude of the effect) [1] | other results
 | COc1cc2c(cc1OC)OC(OC)(C1=NCCN1)CO2 (stereo not shown) |  |  |  |  |  | Activity relative to unsubstituted idazoxan analog / α2-presynaptic antagonist activity (α1 or α2 receptors): only extremely marginal activity
218 | Fc1cccc2c1OCC(OCc1ccccc1)(C1=NCCN1)O2 (stereo not shown) (as salt: hydrochloride) (hydrate or solvate) [Example 8, 2-(5-Fluoro-2-benzyloxy-1,4-benzodioxan-2-yl)-imidazoline Hydrochloride] |  |  |  |  |  | 
206 | CCCOC1(C2=NCCN2)COc2c(F)cccc2O1 (stereo not shown) (as salt: hydrochloride) [Example 3, 2-(5-Fluoro-2-propoxy-1,4-benzodioxan-2-yl)-imidazoline Hydrochloride] |  |  |  |  |  | 
214 | C=CCOC1(C2=NCCN2)COc2c(F)cccc2O1 (stereo not shown) (as salt: hydrochloride) [Example 7, 2-(5-Fluoro-2-allyloxy-1,4-benzodioxan-2-yl)-imidazoline Hydrochloride] |  |  |  |  |  | 
> 260 | CCOC1(C2=NCCN2)COc2c(F)cccc2O1 (stereo not shown) (as salt: salt) [Example 2, 2-(5-Fluoro-2-ethoxy-1,4-benzodioxan-2-yl)-2-imidazoline] |  |  |  |  |  | 
 | CCOC1(C2=NCCN2)COc2ccccc2O1 (single isomer, unassigned; (+)) [(+) RX 811059, 2-ethoxy idazoxan] | 0.08 | 0.04 to 10 | 0.32 | 0.16 to 10 |  | 
 | COC1(C2=NCCN2)COc2ccccc2O1 (single isomer, unassigned; (+)) [(+) RX 821002, 2-methoxy idazoxan] | 0.01 | 0.01 to 10 | 0.05 | 0.04 to 2.5 | not significantly active; also recorded: non-significant | Number of doses inducing the inhibition of hypothermia in 100% of the animals (α2-adrenergic receptors): 2 doses; Doses normalizing the hypothermia in 100% of the animals (α2-adrenergic receptors; list of single doses): none; ED50 normalization (per os) (α2-adrenergic receptors): 0.56 mg/kg; Range of active doses (per os) normalization (α2-adrenergic receptors): 0.16 to 10 mg/kg; Proportion of the animals in which hypothermia is normalized (maximum reached) (α2-adrenergic receptors; reached at only 2 doses): 80%
 | COC1(C2=NCCN2)COc2c(F)cccc2O1 (stereo not shown) [Dextrorotatory compound of Example 1, 2-(5-Fluoro-2-methoxy-1,4-benzodioxan-2-yl)-2-imidazoline] | 0.003 | 0.0025 to 40 | 0.02 | 0.0025 to 10 | 201% | Number of doses inducing the inhibition of hypothermia in 100% of the animals (α2-adrenergic receptors): 6 doses; Number of doses normalizing the hypothermia in 100% of the animals (α2-adrenergic receptors; in vivo): 3 doses; ED50 normalization (per os) (α2-adrenergic receptors): 0.22 mg/kg; Range of active doses (per os) normalization (α2-adrenergic receptors): 0.04 to 40 mg/kg
 | CCOC1(C2=NCCN2)COc2c(F)cccc2O1 (stereo not shown) [Dextrorotatory compound of Example 2, 2-(5-Fluoro-2-ethoxy-1,4-benzodioxan-2-yl)-2-imidazoline] | 0.02 | 0.0025 to 40 | 0.16 | 0.01 to 10 | 198% | 
 | COc1cc2c(cc1OC)C(=O)C(CC1CCN(Cc3ccccc3)CC1)C2 (stereo not shown) [Donepezil] |  |  |  |  | 67% | 
 | COC1(C2=NCCN2)COc2c(F)cccc2O1 (stereo not shown) [Example 1, 2-(5-Fluoro-2-methoxy-1,4-benzodioxan-2-yl)-2-imidazoline] |  |  |  |  |  | Assayed normetanephrine level relative to (+) RX 821002 (release of noradrenalin): 125 to 150 % higher
 | Nc1c2c(nc3ccccc13)CCCC2 [Tacrine] |  |  |  |  | 191% | 

SMILES | melting point [°C] | ED50 inhibition of hypothermia (α2-adrenergic receptors) [mg/kg] | Range of active doses, inhibition of hypothermia (α2-adrenergic receptors) [mg/kg] | ED50 normalization of hypothermia (α2-adrenergic receptors) [mg/kg] | Range of active doses, normalization of hypothermia (α2-adrenergic receptors) [mg/kg] | Increase in the time taken to enter the dark compartment by the treated animals, relative to those receiving scopolamine alone (% amplitude of the effect) [1] | other results
CC(C)COC1(C2=NCCN2)COc2c(F)cccc2O1 (stereo not shown) (as salt: hydrochloride) [Example 5, 2-(5-Fluoro-2-isobutoxy-1,4-benzodioxan-2-yl)-imidazoline Hydrochloride] | 206 |  |  |  |  |  | 
